{"source": "patent US20260263485A1", "about": "“AMINOSTEROL COMPOUNDS, AMINOSTEROL-CYCLODEXTRIN FORMULATIONS, AND METHODS OF USING THE SAME” (Enterin, Inc., priority 2022, published 2026)", "key": {"[1]": {"experiment": "Plasma pharmacokinetics of aqueous ENT-03S solution without cyclodextrin after subcutaneous injection", "type": "in vivo, rat", "conditions": "2 mg/ml, 10 mg/kg SC, male SD rats", "procedure": "The benefits provided by the aminosterol-cyclodextrin formulation disclosed herein can be appreciated by comparing the pharmacokinetics of an aqueous solution of ENT-03S in the absence of cyclodextrin at a concentration of ENT-03S of 2 mg/ml at […].\n(§1) The dose chosen was the maximum ENT-03S concentration that could be delivered to the rat without causing visible local tissue necrosis.\nThe experiment was conducted in male Sprague-Dawley rats following the same protocol as above. The formulation was administered subcutaneously at a dose of 10 mg/kg. The data obtained are shown below in Tables 19 and 20 and FIG. 35."}, "[2]": {"experiment": "Identification of metabolites of ENT-03S in rat plasma and urine samples (UPLC-MS/MS)", "type": "in vivo", "procedure": "An equal number of rat urine (50 μL) were taken from different animals at various time points following administration of ENT-03S. For plasma samples, the Hamilton pooling method was used.\nStudy design: An equal number of rat urine (50 μL) samples were taken from different animals at various time points from study No.: PH-DMPK-ETR-21-001 following administration of ENT-03S. For plasma samples, the Hamilton pooling method was used.\nThe samples were then analysed using UPLC-MS/MS.\nCompound dependent parameters were optimized by ENT-03S."}, "[3]": {"conditions": "male, Sprague-Dawley, in vivo, sc, 10 mg/kg", "protocol": "An equal volume of rat bile samples (50 μL) were taken from different animals at different time points following administration of ENT-03S. 50 μL of matrix was mixed with 200 μL of methanol (containing 0.1% formic acid), vortexed for 100 seconds and then centrifuged at 16,000 g for 10 minutes at 4° C. to precipitate proteins. 100 μL of the supernatant was transferred to a new tube and the supernatant diluted with 100 μt, pure water, mixed well and analyzed using UPLC-MS/MS.\nThe peak area percentages of parent drug and each metabolite were determined by semi-quantitative estimation using the extracted ion chromatogram peak areas of all detected drug-related material in the sample. Metabolites with percentage of peak area>10% are proposed as major metabolites of ENT-03S.\nBile samples were obtained from male rats at various time points following a 10 mg/kg dose of ENT-03S via subcutaneous administration in bile dicut cannulated male SD rats as detailed in Table 10. The samples were transferred on dry ice and stored at −80° C. prior to use\nStudy design: An equal volume of rat bile samples (50 μL) were taken from different animals at different time points following administration of ENT-03S in study No.: PII-DMPK-ETR-21-001. 50 μL of matrix was mixed with 200 μL of methanol (containing 0.1% formic acid), vortexed for 100 seconds and then centrifuged at 16,000 g for 10 minutes at 4° C. to precipitate proteins. 100 μL of the supernatant was transferred to a new tube and the supernatant diluted with 100 μL pure water, mixed well and analyzed using UPLC-MS/MS.\nSample preparation: For bile samples, an equal volume of samples (50 μL) are taken from different animals at various time points after the administration of each group of samples, and the same group of samples are mixed thoroughly.\nData Analysis: UPLC-MS/MS was used for sample analysis, and was conducted using a DionexUltiMate 3000/Vanquish UHPLC system. For mass spectrometry (MS), all analysis was carried out with a Q-Exactive instrument (Thermo Fisher). A full MS scan was used to trigger the data dependent acquisition (DDA) of MS/MS scan spectra. Compound dependent parameters were optimized by ENT-03S. DDA settings were used to trigger acquisition of MS^2 spectra for ions whose intensity is in top 5 of all, with exclusion of impurity ions (m/z 149.02332, m/z 279.15909, m/z 391.28429 and m/z 445.12003), after 3 occurrences for 10 s. Dynamic exclusion settings: automatic exclusion of the ions which have been taken.\nData Analysis: The analysis was carried out using a thermo Fisher Scientific Q Exactive instrument. Full MS scan was used to trigger the data dependent acquisition (DDA) of MS/MS scan spectra. Compound dependent parameters were optimized by ENT-03S. DDA settings were used to trigger acquisition of MS^2 spectra for ions whose intensity was in the top 5 of all, with exclusion of ions (m/z 149.02332, m/z 279 1 5909, m/z 391.28429 and m/z 445 12003), after 3 occurrences for 10 s. Data was acquired and processed using Xcalibur v4.1 software (Thermo Fisher Scientific) and Compound Discoverer 3.1 (Thermo Fisher Scientific) and Excel (Microsoft 2016)."}, "[4]": {"experiment": "Subcutaneous injection into a human subject (local tolerability)", "type": "in vivo", "procedure": "[…] The contents of the syringe were injected subcutaneously in the abdominal area of a human subject creating a visible swelling."}, "[5]": {"experiment": "Visible local tissue necrosis on subcutaneous delivery to the rat", "type": "in vivo", "conditions": "aqueous solution in the absence of cyclodextrin, pH 74", "description": "as §1"}, "[6]": {"experiment": "Plasma pharmacokinetics of ENT-03S cyclodextrin formulation after subcutaneous injection", "type": "in vivo, rat", "conditions": "20% beta-cyclodextrin formulation, 10 mg/kg SC, male SD rats, individual rats, 10 mg/kg", "procedure": "In this example, ENT-03S was formulated with unmodified beta-cyclodextrin at a concentration of 25 mg/ml ENT-03, and 20% beta-cyclodextrin, pH 7.5, buffered with phosphate.\nMale Sprague-Dawley rats were administered the ENT-03-cyclodextrin formulation subcutaneous at a dose of 10 mg/kg. Blood samples were drawn from the tail vein at various times, the concentrations of ENT-03 determined, and PK parameters determined."}, "[7]": {"conditions": "0. 1l of aqueous ENT-03S 2 mg/ml, pH 74, no cyclodextrin"}}, "note": "“And” between values parts separate entries of the source, which are not always exact repeats. Equal entries are not always repeated. Where two headings read alike, the source gives them in different places.", "data": [{"smiles": "C[C@H](CCC[C@H](C)C(=O)O)[C@H]1CCC2C3C(CC[C@@]21C)[C@@]1(C)CC[C@H](NCCCNCCCCNCCCN)C[C@@H]1C[C@H]3O", "note": "(stereo partly drawn) [ENT-03S, (2S,6R)-6-((3S,5R,7R,10S,13R,17R)-3-((3-((4-((3-aminopropyl)amino)butyl)amino)propyl)amino)-7-hydroxy-10,13-dimethylhexadecahydro-1 H-cyclopenta[a]phenanthren-17-yl)-2-methylheptanoic acid]", "values": [{"measurement": "Concentration (ng/ml) Rat 1-3", "setting": "[1]; 0.25 h, individual rats, 10 mg/kg", "value": "1150 ng/mL and 702 ng/mL and 1930 ng/mL"}, {"measurement": "Concentration (ng/ml) Rat 1-3", "setting": "[1]; 0.5 h, individual rats, 10 mg/kg", "value": "2300 ng/mL and 1490 ng/mL and 3220 ng/mL"}, {"measurement": "Concentration (ng/ml) Rat 1-3", "setting": "[1]; 1 h, individual rats, 10 mg/kg", "value": "4910 ng/mL and 2590 ng/mL and 5570 ng/mL"}, {"measurement": "Concentration (ng/ml) Rat 1-3", "setting": "[1]; 2 h, individual rats, 10 mg/kg", "value": "5900 ng/mL and 8620 ng/mL"}, {"measurement": "Concentration (ng/ml) Rat 1-3", "setting": "[1]; 4 h, individual rats, 10 mg/kg", "value": "10800 ng/mL and 16100 ng/mL"}, {"measurement": "Concentration (ng/ml) Rat 1-3", "setting": "[1]; 8 h, individual rats, 10 mg/kg", "value": "19600 ng/mL and 24800 ng/mL"}, {"measurement": "Concentration (ng/ml) Rat 1-3", "setting": "[1]; 24 h, individual rats, 10 mg/kg", "value": "40000 ng/mL and 54300 ng/mL"}, {"measurement": "AUClast", "setting": "[1]; individual rats, 10 mg/kg", "value": "559.927 µg·h/mL and 749.498 µg·h/mL"}, {"measurement": "AUClast/D", "setting": "[1]; individual rats, 10 mg/kg", "value": "67500 kg·ng·h/mL/mg and 56000 kg·ng·h/mL/mg and 75000 kg·ng·h/mL/mg"}, {"measurement": "Cmax", "setting": "[1]; individual rats, 10 mg/kg", "value": "40000 ng/mL and 54300 ng/mL"}, {"measurement": "AUClast/D Mean", "setting": "[1]; mean", "value": 66200, "unit": "kg·ng·h/mL/mg"}, {"measurement": "concentration at 0.25 h", "setting": "[1]; male, Sprague-Dawley, rat, plasma, sc, 10 mg/kg, 0.25 h, mean", "value": 1260, "unit": "ng/mL"}, {"measurement": "concentration at 0.5 h", "setting": "[1]; male, Sprague-Dawley, rat, plasma, sc, 10 mg/kg, 0.5 h, mean", "value": 2340, "unit": "ng/mL"}, {"measurement": "concentration at 1 h", "setting": "[1]; male, Sprague-Dawley, rat, plasma, sc, 10 mg/kg, 1 h, mean", "value": 4360, "unit": "ng/mL"}, {"measurement": "concentration at 2 h", "setting": "[1]; male, Sprague-Dawley, rat, plasma, sc, 10 mg/kg, 2 h, individual rats, read-out: Concentration (ng/ml) Rat 1-3", "value": 8380, "unit": "ng/mL"}, {"measurement": "concentration at 2 h", "setting": "[1]; male, Sprague-Dawley, rat, plasma, sc, 10 mg/kg, 2 h, mean, read-out: Concentration Mean", "value": 7630, "unit": "ng/mL"}, {"measurement": "concentration at 4 h", "setting": "[1]; male, Sprague-Dawley, rat, plasma, sc, 10 mg/kg, 4 h, individual rats, read-out: Concentration (ng/ml) Rat 1-3", "value": 14100, "unit": "ng/mL"}, {"measurement": "concentration at 4 h", "setting": "[1]; male, Sprague-Dawley, rat, plasma, sc, 10 mg/kg, 4 h, mean, read-out: Concentration Mean", "value": 13700, "unit": "ng/mL"}, {"measurement": "concentration at 8 h", "setting": "[1]; male, Sprague-Dawley, rat, plasma, sc, 10 mg/kg, 8 h, individual rats, read-out: Concentration (ng/ml) Rat 1-3", "value": 26900, "unit": "ng/mL"}, {"measurement": "concentration at 8 h", "setting": "[1]; male, Sprague-Dawley, rat, plasma, sc, 10 mg/kg, 8 h, mean, read-out: Concentration Mean", "value": 23800, "unit": "ng/mL"}, {"measurement": "concentration at 24 h", "setting": "[1]; male, Sprague-Dawley, rat, plasma, sc, 10 mg/kg, 24 h, individual rats, read-out: Concentration (ng/ml) Rat 1-3", "value": 43300, "unit": "ng/mL"}, {"measurement": "concentration at 24 h", "setting": "[1]; male, Sprague-Dawley, rat, plasma, sc, 10 mg/kg, 24 h, mean, read-out: Concentration Mean", "value": 45900, "unit": "ng/mL"}, {"measurement": "Tmax", "setting": "[1]; male, Sprague-Dawley, rat, plasma, sc, 10 mg/kg, individual rats", "value": 24, "unit": "h"}, {"measurement": "AUC(0-t)", "setting": "[1]; male, Sprague-Dawley, rat, plasma, sc, 10 mg/kg, individual rats, read-out: AUClast", "value": 675, "unit": "µg·h/mL"}, {"measurement": "Cmax", "setting": "[1]; male, Sprague-Dawley, rat, plasma, sc, 10 mg/kg, individual rats, read-out: Cmax", "value": 43300, "unit": "ng/mL"}, {"measurement": "AUC(0-t)", "setting": "[1]; male, Sprague-Dawley, rat, plasma, sc, 10 mg/kg, mean, read-out: AUClast Mean", "value": 662, "unit": "µg·h/mL"}, {"measurement": "Cmax", "setting": "[1]; male, Sprague-Dawley, rat, plasma, sc, 10 mg/kg, mean, read-out: Cmax Mean", "value": 45900, "unit": "ng/mL"}, {"measurement": "Metabolite peak area percentages Rat Plasma Male", "setting": "[2]; pooled male SD rat plasma 0.25-24 h after 10 mg/kg ENT-03S SC, relative XIC peak area", "value": 91.29, "unit": "%"}, {"measurement": "Metabolite peak area Rat Plasma Male", "setting": "[2]; pooled male SD rat plasma after 10 mg/kg ENT-03S SC, XIC peak area", "value": "6.03E+08"}, {"measurement": "Metabolite peak area percentages Rat Urine Male", "setting": "[2]; pooled male SD rat urine 0-24 h after 10 mg/kg ENT-03S SC, relative XIC peak area, “—”: not observed", "value": 71.94, "unit": "%"}, {"measurement": "Metabolite peak area Rat Urine Male", "setting": "[2]; pooled male SD rat urine after 10 mg/kg ENT-03S SC, XIC peak area, “—”: not observed", "value": "1.62E+06"}, {"measurement": "Metabolite peak area Rat Bile", "setting": "[3]", "value": "1.70E+07"}, {"measurement": "Metabolite peak area percentages Rat Bile", "setting": "[3]", "value": 13.77, "unit": "%"}, {"measurement": "local swelling, redness, and warmth", "setting": "[4]; [7]", "value": "lasted for several days"}, {"measurement": "pain on injection", "setting": "[4]; [7]", "value": "severe pain within seconds that persisted for several hours"}, {"measurement": "disappearance of swelling at injection site", "setting": "[4]; 1 ml of Example 4 formulation (ENT-03S 50 mg/ml, 25% 2-hydroxypropyl β-cyclodextrin), abdominal area", "value": "Over the course of an hour, the swelling disappeared"}, {"measurement": "sensation on subcutaneous injection", "setting": "[4]; 1 ml of Example 4 formulation (ENT-03S 50 mg/ml, 25% 2-hydroxypropyl β-cyclodextrin, phosphate, pH 7.4-7.6), abdominal area", "value": "mild stinging sensation was noted, which disappeared within a few minutes"}, {"measurement": "maximum ENT-03S concentration that could be delivered to the rat without causing visible local tissue necrosis", "setting": "[5]", "value": 2, "unit": "mg/mL"}, {"measurement": "Concentration (ng/ml) Rat 1-3", "setting": "[6]; 0.25 h", "value": "22000 ng/mL and 20800 ng/mL"}, {"measurement": "Concentration (ng/ml) Rat 1-3", "setting": "[6]; 0.5 h", "value": "27100 ng/mL and 30200 ng/mL"}, {"measurement": "Concentration (ng/ml) Rat 1-3", "setting": "[6]; 1 h", "value": "31700 ng/mL and 33000 ng/mL"}]}]}
